Measured values as given in article PMC4188576 (PLoS ONE, 2014).

Assays:
[1] = biological target: T1, Na,K-ATPase α1 isoform (Mus musculus, UniProt Q8VDN2); assay: Na,K-ATPase activity of mouse kidney membranes, dose-response; type: biochemical
T1 construct: gene Atp1a1; native mouse kidney membrane preparation, primarily α1 isoform

[2] = biological target: T2, Na,K-ATPase α1 isoform (Homo sapiens, UniProt P05023); assay: competition of 3H-ouabain radioligand binding on HeLa cells
T2 construct: gene ATP1A1; endogenous enzyme on HeLa cell monolayers

[3] = biological target: T3, Pdr5p (Saccharomyces cerevisiae, UniProt P33302); assay: ATPase (Pi release) assay on Pdr5p-overexpressing plasma membranes, oligomycin-sensitive activity; type: biochemical
T3 construct: gene PDR5; plasma membranes containing the overexpressed Pdr5p (strain AD124567)
T3 sequence (P33302 whole entry): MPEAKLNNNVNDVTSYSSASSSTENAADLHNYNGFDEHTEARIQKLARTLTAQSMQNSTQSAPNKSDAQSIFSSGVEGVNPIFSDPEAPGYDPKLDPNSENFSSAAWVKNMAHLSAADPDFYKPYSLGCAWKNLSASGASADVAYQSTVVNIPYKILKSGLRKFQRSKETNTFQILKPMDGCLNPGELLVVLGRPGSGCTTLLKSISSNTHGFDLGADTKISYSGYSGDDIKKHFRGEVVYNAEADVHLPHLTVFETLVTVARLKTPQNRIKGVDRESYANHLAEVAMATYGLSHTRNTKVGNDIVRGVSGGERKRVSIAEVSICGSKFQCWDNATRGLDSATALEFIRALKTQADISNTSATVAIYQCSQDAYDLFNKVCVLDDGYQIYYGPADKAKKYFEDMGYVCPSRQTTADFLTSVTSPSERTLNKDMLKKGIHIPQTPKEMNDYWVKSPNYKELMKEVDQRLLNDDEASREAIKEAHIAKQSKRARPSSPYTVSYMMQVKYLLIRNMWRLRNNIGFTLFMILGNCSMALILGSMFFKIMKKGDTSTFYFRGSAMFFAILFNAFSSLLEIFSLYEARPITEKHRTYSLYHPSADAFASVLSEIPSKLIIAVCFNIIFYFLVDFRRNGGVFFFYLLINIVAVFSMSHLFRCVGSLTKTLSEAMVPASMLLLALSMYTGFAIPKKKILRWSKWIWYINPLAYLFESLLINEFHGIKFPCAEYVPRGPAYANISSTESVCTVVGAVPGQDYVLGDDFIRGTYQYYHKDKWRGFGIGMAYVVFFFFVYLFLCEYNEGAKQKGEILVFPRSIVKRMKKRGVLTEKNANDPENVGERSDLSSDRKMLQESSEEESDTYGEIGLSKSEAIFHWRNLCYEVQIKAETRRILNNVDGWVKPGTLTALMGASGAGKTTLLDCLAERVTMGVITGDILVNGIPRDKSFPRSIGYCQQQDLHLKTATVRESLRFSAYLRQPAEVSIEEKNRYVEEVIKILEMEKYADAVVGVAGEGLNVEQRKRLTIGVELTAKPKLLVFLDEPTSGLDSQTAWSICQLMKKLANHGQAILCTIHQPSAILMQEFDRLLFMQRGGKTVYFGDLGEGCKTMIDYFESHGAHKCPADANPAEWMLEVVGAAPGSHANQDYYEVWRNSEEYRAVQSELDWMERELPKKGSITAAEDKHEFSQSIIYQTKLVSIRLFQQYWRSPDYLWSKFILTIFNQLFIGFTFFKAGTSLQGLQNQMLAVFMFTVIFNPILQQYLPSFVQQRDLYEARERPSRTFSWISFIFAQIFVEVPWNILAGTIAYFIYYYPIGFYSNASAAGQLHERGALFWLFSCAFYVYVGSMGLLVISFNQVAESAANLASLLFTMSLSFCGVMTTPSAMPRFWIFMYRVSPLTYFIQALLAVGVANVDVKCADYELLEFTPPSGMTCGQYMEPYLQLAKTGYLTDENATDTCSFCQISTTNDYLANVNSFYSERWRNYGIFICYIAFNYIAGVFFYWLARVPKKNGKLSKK

C[C@H]1O[C@@H](O[C@H]2[C@@H](O)C[C@H](O[C@H]3[C@@H](O)C[C@H](O[C@H]4CC[C@@]5(C)[C@H](CC[C@@H]6[C@@H]5C[C@@H](O)[C@]5(C)[C@@H](C7=CC(=O)O/C7=C\c7ccccc7)CC[C@]65O)C4)O[C@@H]3C)O[C@@H]2C)C[C@H](O)[C@@H]1O [21-BD, 21-benzylidene digoxin]
Na,K-ATPase activity of mouse kidney membranes, dose-response [1]: Similarly, 21-BD inhibited the mouse kidney Na,K-ATPase with similar kinetics | competition of 3H-ouabain radioligand binding on HeLa cells [2]: 21-BD significantly competed with ouabain binding at concentrations in the µM range | IC50 [3]: 1250 ± 360 nM
